No end group written: not given here.
Tests used:
human astrocytes = experiment: Morphology after peptide treatment, astrocytes; format: cell-based; details: 6 days, 0 μM or 50 μM; stock without BSA
Procedure: Replicate cultures of human astrocytes were exposed to CP-DN-CEBPB or CP-DN-CEBPD for 6 days at final concentrations of 0 μM or 50 μM. […] Stock solutions of the peptides were prepared in buffer without added bovine serum albumin (BSA).

[1] = test system: HIEC-6 non-cancer cell lines; experiment: PI-Annexin staining and flow cytometry, HIEC-6; format: cell-based, human; details: 20 μM, 3 days
Procedure: MDA-MB-231, MCF7, HCT116 and T98G cancer cell lines and HIEC-6 non-cancer cell lines were treated for 3 days with 20 μM CP-dn-CEBPB and CP-dn-CEBPD peptides from stock solutions prepared without additives, followed by PI-Annexin staining and flow cytometry. Numbers in upper and lower quadrants indicate % of cells in early (lower) or late (upper) apoptotic phase.

A375 cells = experiment: A375 subcutaneous tumors, 10 or 20 mg/kg study; format: in vivo, NCR nude mice; details: 10 or 20 mg/kg intraperitoneally; for tumor growth (calculated tumor volumes): to day 24
Procedure: A375 cells were subcutaneously implanted in the flanks of NCR nude mice. After tumors had formed, the animals were treated intraperitoneally with 10 or 20 mg/kg of CP-dn-CEBPB, CP-dn-CEBPD or vehicle as indicated in the schema shown in FIG. 37A. Animal weight was monitored (FIG. 37B). Tumor sizes were measured and volumes calculated on each day of injection. […] FIG. 37D compares calculated individual and mean tumor volumes for vehicle, CP-dn-CEBPB and CP-dn-CEBPD treated animals on day 24.

LN229 glioblastoma cells = experiment: Cell number after peptide treatment, LN229; format: cell-based, human; details: for growth and survival of LN229 cells: 6 days, 0 μM to 50 μM, stock without BSA
Procedure: In some implementations, the mixture of arg/glu may be added at a molarity of, or of about 5 mM, 10 mM, 15 mM, 20 mM, 25 mM, or 30 mM.
Replicate cultures were exposed to the peptides the for 6 days at the indicated concentrations. Stock solutions of the peptides were prepared in buffer without added bovine serum albumin (BSA).

[2] = test system: MCF10A non-cancer human breast epithelial cells; experiment: Cell number after peptide treatment, MCF10A; format: cell-based; details: 6 days, 0 μM to 50 μM; stock without BSA
Procedure: Replicate cultures of HIEC-6 non-cancer human intestinal epithelial cells, MCF10A non-cancer human breast epithelial cells, or normal human astrocytes were exposed to CP-DN-CEBPB or CP-DN-CEBPD, for 6 days at doses of 0 μM to 50 μM. […] Stock solutions of the peptides were prepared in buffer without added bovine serum albumin (BSA).

[3] = test system: BCL2, MCL1 and survivin proteins; experiment: Western immunoblotting for pro-survival proteins; format: cell-based; details: 20 μM, 3 days; T98G, HCT116, MDA-MB-231 and MCF7 cell lines
Procedure: T98G, HCT116, MDA-MB-231, and MCF7 cell lines were exposed to 0 or 20 μM CP-dn-CEBPB or CP-dn-CEBPD for 3 days and then assessed by Western immunoblotting for levels of BCL2, MCL1 and survivin proteins with actin as loading control (FIG. 34A). Remaining panels show amounts of surviving (FIG. 34B), BCL2 (FIG. 34C) and MCL1 (FIG. 34D) were quantified relative to actin in multiple experiments.

T98G cells = experiment: Combination with paclitaxel, cell number, T98G; format: cell-based; details: 1 nM or 5 nM paclitaxel and 3, 10 or 20 μM peptide, 6 days
Procedure: Replicate cultures of T98G, MDA-MB 231, and MCF7 cells were treated with 1 nM or 5 nM paclitaxel and 3 μM, 10 μM, or 20 μM CP-dn-CEBPB and CP-dn-CEBPD peptides, maintained for 6 days, and then assessed for cell number. The bar graphs of FIGS. 26A (T98G, CP-dn-CEBPB), 26C (T98G, CP-dn-CEBPBD, 26E (MDA-MB-231, CP-dn-CEBPBD), 26G (MDA-MB-231, CP-dn-CEBPD), 26I (MCF7, CP-dn-CEBPBB), and 26K (MCF7, CP-dn-CEBPBD) show relative cell numbers for each condition as compared to untreated controls. The line graphs of FIGS. 26B (T98G, CP-dn-CEBPB), 26D (T98G, CP-dn-CEBPBD), 26F (MDA-MB-231, CP-dn-CEBPB), 26H (MDA-MB-231, CP-dn-CEBPD), 26J (MCF7, CP-dn-CEBPB), and 26L (MCF7 CP-dn-CEBPBD) show the response as normalized in each case so that 100 represents the relative number of surviving cells that received the indicated level of paclitaxel, but no peptide treatment. Calculated combination indices (CI) were as follows: MCF7: CI=0.41±0.04 for CP-dn-CEBPB; 0.44±0.04 for CP-dn-CEBPD; MDA-MB-231: 0.74±0.03 for CP-dn-CEBPB; 0.74±0.05 for CP-dn-CEBPD; T98G: CI=0.84±0.06 for CP-dn-CEBPB and 0.75±0.07 for CP-dn-CEBPD.

MDA-MB 231 cells = experiment: Colony forming activity in soft agar, MDA-MB 231; format: cell-based; details: 6 days; doses 0.05, 0.5 and 5 μM
Procedure: T98G (FIG. 21A), MDA-MB 231 (FIG. 21B), and HCT116 (FIG. 21C) cells were exposed to CP-DN-CEBPB and CP-DN-CEBPD for 6 days at doses of 0.05 μM 0.5 μM, and 5 μM while growing in soft agar. Growth was inhibited by does as low as 0.5 μM. T98G (FIG. 21D), MDA-MB 231 (FIG. 21E), and HCT116 (FIG. 21F) cells were exposed to CP-DN-CEBPB and CP-DN-CEBPD for 6 days at doses of 0.05 μM 0.5 μM, and 5 μM while growing on culture plates. Growth was inhibited by does as low as 0.5 μM.

Row | Sequence | morphology of human astrocytes (human astrocytes) | apoptotic death (early or late apoptotic phase) [1] | side effects (animal weight monitored) (A375 cells) | tumor growth (calculated tumor volumes) (A375 cells) | growth and survival of LN229 cells (LN229 glioblastoma cells) | effect of adding arg/glu mixture at 2 mM (LN229 glioblastoma cells; cultured LN229 cells) | number of MCF10A cells [2] | levels of BCL2, MCL1 and survivin proteins relative to actin [3] | combination index (CI) with paclitaxel (T98G cells) | lowest dose at which growth was inhibited, soft agar (MDA-MB 231 cells) | shift of IC50 by 20 mM arginine and glutamate (LN229 glioblastoma cells; cultured LN229 cells)
1 | RQIKIWFQNRRMKWKKLETQHKVLELTAENERLQKKVEQLSRELSTLRNLFKQL [CP-DN-CEBPB] | did not affect the morphology | not in the control non-caner cell line | no apparent side effects | suppressed tumor growth | decrease in growth and survival | only minimal effect | did not cause a dose-dependent decrease | surpress expression of pro-survival proteins | 0.84±0.06 | 0.5 µM | –
2 | RQIKIWFQNRRMKWKKLVELSAENEKLHQRVEQLTRDLAGLRQFFK [CP-DN-CEBPD] | did not affect the morphology | not in the control non-caner cell line | no apparent side effects | suppressed tumor growth | decrease in growth and survival | only minimal effect | did not cause a dose-dependent decrease | surpress expression of pro-survival proteins | 0.75±0.07 | 0.5 µM | 10 fold
